IC50 and Ki data for 17 compounds are collected here from patent US20070203133A1, “Substituted 5,12-diaza-benzoanthracene analogues” (Neurogen Corporation, priority 2004, published 2007).

One experiment concerns the target T1, human capsaicin receptor (Homo sapiens, UniProt Q8NER1).
T1 construct: transfected with the pBK-CMV expression construct encoding the full length human capsaicin receptor; expressed in transfected cells; host or cells: HEK293, stably transfected with the pBK-CMV construct
The experiment can be described thus: Calcium mobilization assay, determination of antagonist activity. The format is cell-based. As to conditions: 50% decrease in the fluorescence response of cells expressing human capsaicin receptor exposed to capsaicin. How it is done: A cDNA encoding full length human capsaicin receptor (SEQ ID NO:1, 2 or 3 of U.S. Pat. No. 6,482,611) is subcloned in the plasmid pBK-CMV (Stratagene, La Jolla, Calif.) for recombinant expression in mammalian cells.
Human embryonic kidney (HEK293) cells are transfected with the pBK-CMV expression construct encoding the full length human capsaicin receptor using standard methods. The transfected cells are selected for two weeks in media containing G418 (400 μg/ml) to obtain a pool of stably transfected cells. Independent clones are isolated from this pool by limiting dilution to obtain clonal stable cell lines for use in subsequent experiments.
Cells transfected with expression plasmids (as described in Example 4) and thereby expressing human capsaicin receptor are seeded and grown to 70-90% confluency in FALCON black-walled, clear-bottomed 96-well plates (#3904, BECTON-DICKINSON, Franklin Lakes, N.J.). The culture medium is emptied from the 96 well plates and FLUO-3 AM calcium sensitive dye (Molecular Probes, Eugene, Oreg.) is added to each well (dye solution: 1 mg FLUO-3 AM, 440 μL DMSO and 440 μl 20% pluronic acid in DMSO, diluted 1:250 in Krebs-Ringer HEPES (KRH) buffer (25 mM HEPES, 5 mM KCl, 0.96 mM NaH2PO4, 1 mM MgSO4, 2 mM CaCl2, 5 mM glucose, 1 mM probenecid, pH 7.4), 50 μL diluted solution per well). Plates are covered with aluminum foil and incubated at 37° C. for 1-2 hours in an environment containing 5% CO2. After the incubation, the dye is emptied from the plates, and the cells are washed once with KRH buffer, and resuspended in KRH buffer.
To measure the ability of a test compound to agonize or antagonize a calcium mobilization response in cells expressing capsaicin receptors to capsaicin or other vanilloid agonist, the EC50 of the agonist capsaicin is first determined. An additional 20 μl of KRH buffer and 1 μl DMSO is added to each well of cells, prepared as described above. 100 μl capsaicin in KRH buffer is automatically transferred by the FLIPR instrument to each well. Capsaicin-induced calcium mobilization is monitored using either FLUOROSKAN ASCENT (Labsystems; Franklin, Mass.) or FLIPR (fluorometric imaging plate reader system; Molecular Devices, Sunnyvale, Calif.) instruments. Data obtained between 30 and 60 seconds after agonist application are used to generate an 8-point concentration response curve, with final capsaicin concentrations of 1 nM to 3 μM. KALEIDAGRAPH software (Synergy Software, Reading, Pa.) is used to fit the data to the equation: y=a*(1/(1+(b/x)^c)) to determine the 50% excitatory concentration (EC50) for the response. In this equation, y is the maximum fluorescence signal, x is the concentration of the agonist or antagonist (in this case, capsaicin), a is the Emax, b corresponds to the EC50 value and c is the Hill coefficient. Determination of Agonist Activity
Test compounds are dissolved in DMSO, diluted in 20 μl KRH buffer so that the final concentration of test compounds in the assay well is between 1 μM and 5 μM, and added to cells prepared as described above. The 96 well plates containing prepared cells and test compounds are incubated in the dark, at room temperature for 0.5 to 6 hours. It is important that the incubation not continue beyond 6 hours. Just prior to determining the fluorescence response, 100 μl capsaicin in KRH buffer at twice the EC50 concentration determined as described above is automatically added by the FLIPR instrument to each well of the 96 well plate for a final sample volume of 200 μl and a final capsaicin concentration equal to the EC50. The final concentration of test compounds in the assay wells is between 1 μM and 5 μM. […] The concentration of antagonist required to provide a 50% decrease, relative to the response observed in the presence of capsaicin and without antagonist, is the IC50 for the antagonist, and is preferably below 1 micromolar, 100 nanomolar, 10 nanomolar or 1 nanomolar.
(In general: A change in cytosolic calcium serves as a functional read-out for many receptors and channels.)

The target in a further experiment is VR (Homo sapiens, UniProt Q8NER1). The note with it: binds to VR with no more than moderate affinity; typical value; cited from earlier work.

Broadly, the IC50 is the midpoint of a concentration-inhibition curve. Usually Ki stands for a measure of affinity in units of concentration, obtained from inhibition or displacement.

The structures appear in SMILES notation.

T1 sequence (Q8NER1 whole entry): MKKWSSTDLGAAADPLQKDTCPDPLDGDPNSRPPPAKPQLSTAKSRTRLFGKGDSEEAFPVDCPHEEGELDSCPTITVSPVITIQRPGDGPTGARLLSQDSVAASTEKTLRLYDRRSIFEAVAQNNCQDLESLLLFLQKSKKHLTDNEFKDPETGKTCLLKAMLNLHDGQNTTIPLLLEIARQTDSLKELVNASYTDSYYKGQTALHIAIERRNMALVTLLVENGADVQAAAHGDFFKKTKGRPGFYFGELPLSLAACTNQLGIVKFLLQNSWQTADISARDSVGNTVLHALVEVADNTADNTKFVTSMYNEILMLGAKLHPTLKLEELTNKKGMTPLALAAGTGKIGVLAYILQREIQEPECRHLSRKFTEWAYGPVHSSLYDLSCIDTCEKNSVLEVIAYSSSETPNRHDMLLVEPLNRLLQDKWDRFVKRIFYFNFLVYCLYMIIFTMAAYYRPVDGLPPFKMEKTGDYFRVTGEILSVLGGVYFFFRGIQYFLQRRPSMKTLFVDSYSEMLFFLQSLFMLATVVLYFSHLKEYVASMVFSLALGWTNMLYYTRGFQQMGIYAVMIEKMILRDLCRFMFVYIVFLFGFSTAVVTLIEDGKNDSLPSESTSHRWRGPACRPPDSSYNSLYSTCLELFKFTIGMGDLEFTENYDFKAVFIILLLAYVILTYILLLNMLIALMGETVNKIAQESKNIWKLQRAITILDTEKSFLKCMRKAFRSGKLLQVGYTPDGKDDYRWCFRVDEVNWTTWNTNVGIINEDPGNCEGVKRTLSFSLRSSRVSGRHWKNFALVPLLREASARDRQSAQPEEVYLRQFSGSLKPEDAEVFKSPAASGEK
Sequence of VR (Q8NER1 whole entry): as above

On to `COCc1nc2nc(-c3ncccc3C(F)(F)F)ccc2c2c1Oc1cc(C(F)(F)F)ccc1N2` [Compound 1, 6-Methoxymethyl-9-trifluoromethyl-3-(3-trifluoromethyl-pyridin-2-yl)-12H-7-oxa-4,5,12-triaza-benzo[a]anthracene], for which, on human capsaicin receptor, the IC50 is not above 1 µM.

Regarding `COCc1nc2nc(-c3ncccc3C(F)(F)F)ccc2c2c1Oc1ccc(Cl)cc1N2` [Compound 3, 10-Chloro-6-methoxymethyl-3-(3-trifluoromethyl-pyridin-2-yl)-12H-7-oxa-4,5,12-triaza-benzo[a]anthracene], at human capsaicin receptor, the IC50 was not above 1 µM.

For `COCc1nc2nc(-c3ncccc3C(F)(F)F)ccc2c2c1Oc1cc(S(C)(=O)=O)ccc1N2` [Compound 4, 9-Methanesulfonyl-6-methoxymethyl-3-(3-trifluoromethyl-pyridin-2-yl)-12H-7-oxa-4,5,12-triaza-benzo[a]anthracene], the IC50 at human capsaicin receptor is not above 1 µM.

Take `COCc1nc2nc(-c3ncccc3C(F)(F)F)ccc2c2c1Oc1cc(C(C)(C)C)ccc1N2` [Compound 5, 9-tert-Butyl-6-methoxymethyl-3-(3-trifluoromethyl-pyridin-2-yl)-12H-7-oxa-4,5,12-triaza-benzo[a]anthracene]: the IC50 at human capsaicin receptor is not above 1 µM.

On to `FC(F)(F)c1ccc2c(c1)Oc1c(Cl)nc3nc(-c4ncccc4C(F)(F)F)ccc3c1N2` [Compound 6, 6-Chloro-9-trifluoromethyl-3-(3-trifluoromethyl-pyridin-2-yl)-12H-7-oxa-4,5,12-triaza-benzo[a]anthracene], for which, at human capsaicin receptor, the IC50 is not above 1 µM.

For `OCc1nc2nc(-c3ncccc3C(F)(F)F)ccc2c2c1Oc1cc(C(F)(F)F)ccc1N2` [Compound 7, [9-Trifluoromethyl-3-(3-trifluoromethyl-pyridin-2-yl)-12H-7-oxa-4,5,12-triaza-benzo[a]anthracen-6-yl]-methanol], at human capsaicin receptor, the IC50 was not above 1 µM.

Consider `C[C@@H]1CN(Cc2nc3nc(-c4ncccc4C(F)(F)F)ccc3c3c2Oc2cc(C(F)(F)F)ccc2N3)C[C@H](C)O1` [Compound 8, 6-(2,6-Dimethyl-morpholin-4-ylmethyl)-9-trifluoromethyl-3-(3-trifluoromethyl-pyridin-2-yl)-12H-7-oxa-4,5,12-triaza-benzo[a]anthracene (cis)], for which the IC50 on human capsaicin receptor was not above 1 µM.

On to `CCCN(CCC)Cc1nc2nc(-c3ncccc3C(F)(F)F)ccc2c2c1Oc1cc(C(F)(F)F)ccc1N2` [Compound 9, Dipropyl-[9-trifluoromethyl-3-(3-trifluoromethyl-pyridin-2-yl)-12H-7-oxa-4,5,12-triaza-benzo[a]anthracen-6-ylmethyl]-amine], for which the IC50 at human capsaicin receptor is not above 1 µM.

For `Cc1nc2nc(-c3ncccc3C(F)(F)F)ccc2c2c1Oc1cc(C(F)(F)F)ccc1N2` [Compound 10, 6-Methyl-9-trifluoromethyl-3-(3-trifluoromethyl-pyridin-2-yl)-12H-7-oxa-4,5,12-triaza-benzo[a]anthracene], the IC50 at human capsaicin receptor was not above 1 µM.

For the compound `FC(F)(F)c1ccc2c(c1)Oc1cnc3nc(-c4ncccc4C(F)(F)F)ccc3c1N2` [Compound 11, 9-Trifluoromethyl-3-(3-trifluoromethyl-pyridin-2-yl)-12H-7-oxa-4,5,12-triaza-benzo[a]anthracene], the IC50 at human capsaicin receptor is not above 1 µM.

Consider `CC(C)COCc1nc2nc(-c3ncccc3C(F)(F)F)ccc2c2c1Oc1cc(C(F)(F)F)ccc1N2` [Compound 12, 6-Isobutoxymethyl-9-trifluoromethyl-3-(3-trifluoromethyl-pyridin-2-yl)-12H-7-oxa-4,5,12-triaza-benzo[a]anthracene], for which the concentration for half-maximal inhibition (IC50) at human capsaicin receptor was not above 1 µM.

As to `COCc1nc2nc(-c3ncccc3C(F)(F)F)ccc2c2c1Oc1cc(F)ccc1N2` [Compound 13, 9-Fluoro-6-methoxymethyl-3-(3-trifluoromethyl-pyridin-2-yl)-12H-7-oxa-4,5,12-triaza-benzo[a]anthracene], the IC50 at human capsaicin receptor was not above 1 µM.

Turning to `Cc1nc2cc(-c3ncccc3C(F)(F)F)ccc2c2c1Oc1ccccc1N2` [Compound 14, 6-Methyl-3-(3-trifluoromethyl-pyridin-2-yl)-12H-7-oxa-5,12-diaza-benzo[a]anthracene], the IC50 on human capsaicin receptor was not above 1 µM.

As for `COCc1nc2nc(-c3ncccc3C(F)(F)F)ccc2c2[nH]c3ccc(Cl)cc3c(=O)c12` [Compound 15, 9-Chloro-6-methoxymethyl-3-(3-trifluoromethyl-pyridin-2-yl)-12H-4,5,12-triaza-benzo[a]anthracen-7-one], on human capsaicin receptor, the IC50 was not above 1 µM.

For `COCc1nc2nc(-c3ncccc3C(F)(F)F)ccc2c2[nH]c3ccc(Br)cc3c(=O)c12` [Compound 16, 9-Bromo-6-methoxymethyl-3-(3-trifluoromethyl-pyridin-2-yl)-12H-4,5,12-triaza-benzo[a]anthracen-7-one], the IC50 at human capsaicin receptor was not above 1 µM.

For `COCc1nc2nc(-c3ncccc3C(F)(F)F)ccc2c2c1C(O)c1cc(Br)ccc1N2` (centres unmarked) [Compound 17, 9-Bromo-6-methoxymethyl-3-(3-trifluoromethyl-pyridin-2-yl)-7,12-dihydro-4,5,12-triaza-benzo[a]anthracen-7-ol], the IC50 at human capsaicin receptor is not above 1 µM.

As for `Cl.Cl.Cl.Cl.Cl.Cl.N.N.N.N.N.N.N.N.N.N.N.N.N.N.[O-2].[O-2].[Ru+3].[Ru+3].[Ru+4]` [ruthenium red], the Ki on VR was not below 140 µM.
